Laboratory results as given in patent publication US9078444B2, “Isothiazoline derivatives as insecticidal compounds” (Syngenta Participations AG, priority 2011, dated 2015).

Key:
Type in all cases: in vivo
Spodoptera littoralis = Spodoptera littoralis (Egyptian cotton leafworm) cotton leaf disc test; settings: foliar, 72 h, 200 ppm sprayed on cotton leaf discs, mortality, feeding behavior, growth regulation 3 days after treatment
Procedure: Spodoptera littoralis (Egyptian Cotton Leafworm): Cotton leaf discs were placed on agar in a 24-well microtiter plate and sprayed with test solutions at an application rate of 200 ppm. After drying, the leaf discs were infested with […]. The samples were checked for mortality, feeding behavior, and growth regulation 3 days after treatment (DAT).

Heliothis virescens = Heliothis virescens (tobacco budworm) egg test on artificial diet; settings: 96 h, 200 ppm (concentration in well 18 ppm), eggs on artificial diet, egg mortality, larval mortality, growth regulation after 4 days
Procedure: Heliothis virescens (Tobacco Budworm): Eggs (0-24 h old) were placed in 24-well microtiter plate on artificial diet and treated with test solutions at an application rate of 200 ppm (concentration in well 18 ppm) by pipetting. After an incubation period of 4 days, samples were checked for egg mortality, larval mortality, and growth regulation.

Plutella xylostella = Plutella xylostella (diamond back moth) artificial diet test; settings: 144 h, 200 ppm (concentration in well 18 ppm), L2 larvae, larval mortality and growth regulation after 6 days
Procedure: (§1) Plutella xylostella (Diamond Back Moth): 24-well microtiter plate (MTP) with artificial diet was treated with test solutions at an application rate of 200 ppm (concentration in well 18 ppm) by pipetting. After drying, the MTPs were infested with L2 larvae (7-12 per well). After an incubation period of 6 days, samples were checked for larval mortality and growth regulation.

Diabrotica balteata = Diabrotica balteata (corn root worm) artificial diet test; settings: 120 h, 200 ppm (concentration in well 18 ppm), L2 larvae, larval mortality and growth regulation after 5 days
Procedure: as §1, with “Diabrotica balteata (Corn Root Worm): A” for “Plutella xylostella (Diamond Back Moth):”, “(6-10” for “(7-12”, “5” for “6”

Thrips tabaci = Thrips tabaci (onion thrips) sunflower leaf disc test; settings: foliar, 168 h, 200 ppm sprayed on sunflower leaf discs, mixed ages, mortality after 7 days
Procedure: Thrips tabaci (Onion Thrips): Sunflower leaf discs were placed on agar in a 24-well microtiter plate and sprayed with test solutions at an application rate of 200 ppm. After drying, the leaf discs were infested with a thrips population of mixed ages. After an incubation period of 7 days, samples were checked for mortality.

Tetranychus urticae = Tetranychus urticae (two-spotted spider mite) bean leaf disc test; settings: foliar, 192 h, 200 ppm sprayed on bean leaf discs, mixed ages, egg, larval and adult mortality 8 days later
Description: Tetranychus urticae (Two-Spotted Spider Mite): Bean leaf discs on agar in 24-well microtiter plates were sprayed with test solutions at an application rate of 200 ppm. After drying, the leaf discs are infested with mite populations of mixed ages. 8 days later, discs are checked for egg mortality, larval mortality, and adult mortality.

Measured: pest or weed control at 200 ppm

Cc1cc(C2=NSC(c3cc(Cl)cc(Cl)c3)(C(F)(F)F)C2)ccc1C(=O)NC1(C)CSC1 (stereo not drawn) [Compound A19]
≥ 80%: all assays above

Cc1cc(C2=NSC(c3cc(Cl)cc(Cl)c3)(C(F)(F)F)C2)ccc1C(=O)NC1C[S+]([O-])C1 (stereo not drawn) [Compound A21]
≥ 80%: all assays above

Cc1cc(C2=NSC(c3cc(Cl)cc(Cl)c3)(C(F)(F)F)C2)ccc1C(=O)NC1CSC1 (stereo not drawn) [Compound A22, 4-[5-(3,5-Dichloro-phenyl)-5-trifluoromethyl-4,5-dihydro-isothiazol-3-yl]-2-methyl-N-thietan-3-yl-benzamide]
≥ 80%: all assays above

CSCCNC(=O)c1ccc(C2=NSC(c3cc(Cl)cc(Cl)c3)(C(F)(F)F)C2)cc1C (stereo not drawn) [Compound A26]
≥ 80%: all assays above

Cc1cc(C2=NSC(c3cc(Cl)cc(Cl)c3)(C(F)(F)F)C2)ccc1C(=O)NC1CCSC1 (stereo not drawn) [Compound A27]
≥ 80%: all assays above

Cc1cc(C2=NSC(c3cc(Cl)cc(Cl)c3)(C(F)(F)F)C2)ccc1C(=O)NCC1CSC1 (stereo not drawn) [Compound A28]
≥ 80%: all assays above

Cc1cc(C2=NSC(c3cc(Cl)cc(Cl)c3)(C(F)(F)F)C2)ccc1C(=O)NCC1CCS1 (stereo not drawn) [Compound A30]
≥ 80%: all assays above

Cc1cc(C2=NSC(c3cc(Cl)cc(Cl)c3)(C(F)(F)F)C2)ccc1C(=O)NCC1CCS1(=O)=O (stereo not drawn) [Compound A31]
≥ 80%: all assays above

Cc1cc(C2=NSC(c3cc(Cl)cc(Cl)c3)(C(F)(F)F)C2)ccc1C(=O)NCCF (stereo not drawn) [Compound A34]
≥ 80%: all assays above

C#CCNC(=O)c1ccc(C2=NSC(c3cc(Cl)cc(Cl)c3)(C(F)(F)F)C2)cc1C (stereo not drawn) [Compound A35]
≥ 80%: all assays above

CCCNC(=O)c1ccc(C2=NSC(c3cc(Cl)cc(Cl)c3)(C(F)(F)F)C2)cc1C (stereo not drawn) [Compound A36]
≥ 80%: all assays above

Cc1cc(C2=NSC(c3cc(Cl)cc(Cl)c3)(C(F)(F)F)C2)ccc1C(=O)Nc1ncccn1 (stereo not drawn) [Compound A38]
≥ 80%: all assays above

Cc1cc(C2=NSC(c3cc(Cl)cc(Cl)c3)(C(F)(F)F)C2)ccc1C(=O)NC(C)C (stereo not drawn) [Compound A39]
≥ 80%: all assays above

Cc1cc(C2=NSC(c3cc(Cl)cc(Cl)c3)(C(F)(F)F)C2)ccc1C(=O)NCC1CCC1 (stereo not drawn) [Compound A40]
≥ 80%: all assays above

Cc1cc(C2=NSC(c3cc(Cl)cc(Cl)c3)(C(F)(F)F)C2)ccc1C(=O)NCC(F)F (stereo not drawn) [Compound A42]
≥ 80%: all assays above

Cc1cc(C2=NSC(c3cc(Cl)cc(Cl)c3)(C(F)(F)F)C2)ccc1C(=O)Nc1cncnc1 (stereo not drawn) [Compound A48]
≥ 80%: all assays above

Cc1cc(C2=NSC(c3cc(Cl)cc(Cl)c3)(C(F)(F)F)C2)ccc1C(=O)NC1CCc2ccccc21 (stereo not drawn) [Compound A50]
≥ 80%: all assays above

COCCNC(=O)c1ccc(C2=NSC(c3cc(Cl)cc(Cl)c3)(C(F)(F)F)C2)cc1C (stereo not drawn) [Compound A51]
≥ 80%: all assays above

Cc1cc(C2=NSC(c3cc(Cl)cc(Cl)c3)(C(F)(F)F)C2)ccc1C(=O)NC1CC1 (stereo not drawn) [Compound A52]
≥ 80%: all assays above

Cc1cc(C2=NSC(c3cc(Cl)cc(Cl)c3)(C(F)(F)F)C2)ccc1C(=O)NCCC1OCCO1 (stereo not drawn) [Compound A54]
≥ 80%: all assays above

Cc1cc(C2=NSC(c3cc(Cl)cc(Cl)c3)(C(F)(F)F)C2)ccc1C(=O)Nc1ccccc1F (stereo not drawn) [Compound A60]
≥ 80%: all assays above

CNC(=O)c1ccc(C2=NSC(c3cc(Cl)cc(Cl)c3)(C(F)(F)F)C2)cc1C (stereo not drawn) [Compound A62]
≥ 80%: all assays above

C=CCNC(=O)c1ccc(C2=NSC(c3cc(Cl)cc(Cl)c3)(C(F)(F)F)C2)cc1C (stereo not drawn) [Compound A63]
≥ 80%: all assays above

CCN1OC[C@@H](NC(=O)c2ccc(C3=NS[C@@](c4cc(Cl)cc(Cl)c4)(C(F)(F)F)C3)cc2C)C1=O [Compound A78, 4-[(5S)-5-(3,5-dichlorophenyl)-5-(trifluoromethyl)-4H-isothiazol-3-yl]-N-[(4R)-2-ethyl-3-oxo-isoxazolidin-4-yl]-2-methyl-benzamide]
≥ 80%: all assays above
